Source: patent publication US9963433B2, “Anticancer drugs including the chemical structures of an androgen receptor ligand and a histone deacetylase inhibitor” (Wayne State University, priority 2016, dated 2018)

Tests used:
C4-2 cells = experiment: MTT cell viability assay, C4-2 cells; type: cell-based; settings: MTT, Day 3; up to 10 μM; FIG. 6A
Protocol: (§1) (6A) C4-2 cells were seeded in 96-well plates and 24 h later, they were treated with the indicated compounds (0.1 μM-10 μM) or with vehicle (DMSO). Cell viability was measured by the MTT assay on Days 0 and 3 of treatment. EC50 values were calculated from nonlinear regression plots using GraphPad Prism5 software. […] Cell viability was measured by the MTT assay on Days 0 and 3 of treatment. […] Cell viability was measured by the MTT assay on Days 0 and 3 of treatment. […] (6D) 22Rv1 cells were infected with AR shRNA lentivirus, or control shRNA. 72 h after infection, cells were plated and viable cells were measured by the MTT assay on the indicated days (6D, bottom). Cells were also harvested for western blot analysis and probed with antibody to AR, which was also reactive with the AR splice variant AR-V7 (6D, top). (6E) 22Rv1 cells were seeded in 96-well plates and 24 h later, they were treated with the indicated compounds (0.1 μM-10 μM) or with vehicle (DMSO). Cell viability was measured by the MTT assay on Days 0 and 3 of treatment. EC50 values were calculated from nonlinear regression plots using GraphPad Prism5 software.
(§2) Cell Proliferation Assay. Cells were trypsinized and 6000 cells/well were seeded in 96-well plates coated with poly-D-lysine. The cells were seeded in phenol red-free medium supplemented with 10% FBS, 100 units/ml penicillin, 100 μg/ml streptomycin, 2 mM L-glutamine mixture and sodium pyruvate (1 mM) for C4-2 cells and phenol red-free medium supplemented with 10% FBS, 100 units/ml penicillin, 100 μg/ml streptomycin and 2 mM L-glutamine mixture for 22Rv1 cells. The cells were grown at 37° C. in 5% CO2. Twenty four hours after seeding in the 96-well plates, the cells were treated with indicated compound or DMSO (vehicle). The culture medium was not changed during the time course of the assay. On Day zero and on Day 3, cell viability was determined using the MTT assay. MTT (10 μL, 5 mg/mL) was added to each well and incubated for 2 h at 37° C. The formazan crystal sediments were dissolved in 100 μL of DMSO, and the absorbance at 570 nm was measured using the BioTek Synergy 2 Microplate Reader (BioTek, Winooski, Vt.). […] IC50 values were calculated from nonlinear […] plots using GraphPad Prism5 software.

22Rv1 cells = experiment: MTT cell viability assay, 22Rv1 cells; type: cell-based; settings: Day 3, 0.1 μM-10 μM, FIG. 6E
Protocol: as §1, §2

human recombinant HDAC6 = target: T1, human recombinant HDAC6 (Homo sapiens, UniProt Q9UBN7); experiment: HDAC6 fluorometric assay, recombinant enzyme; type: biochemical; settings: tested at 10 μM and 25 μM; FIG. 2D
T1 construct: purchased Enzo Life Sciences BML-AK516
T1 sequence (Q9UBN7 1-1215): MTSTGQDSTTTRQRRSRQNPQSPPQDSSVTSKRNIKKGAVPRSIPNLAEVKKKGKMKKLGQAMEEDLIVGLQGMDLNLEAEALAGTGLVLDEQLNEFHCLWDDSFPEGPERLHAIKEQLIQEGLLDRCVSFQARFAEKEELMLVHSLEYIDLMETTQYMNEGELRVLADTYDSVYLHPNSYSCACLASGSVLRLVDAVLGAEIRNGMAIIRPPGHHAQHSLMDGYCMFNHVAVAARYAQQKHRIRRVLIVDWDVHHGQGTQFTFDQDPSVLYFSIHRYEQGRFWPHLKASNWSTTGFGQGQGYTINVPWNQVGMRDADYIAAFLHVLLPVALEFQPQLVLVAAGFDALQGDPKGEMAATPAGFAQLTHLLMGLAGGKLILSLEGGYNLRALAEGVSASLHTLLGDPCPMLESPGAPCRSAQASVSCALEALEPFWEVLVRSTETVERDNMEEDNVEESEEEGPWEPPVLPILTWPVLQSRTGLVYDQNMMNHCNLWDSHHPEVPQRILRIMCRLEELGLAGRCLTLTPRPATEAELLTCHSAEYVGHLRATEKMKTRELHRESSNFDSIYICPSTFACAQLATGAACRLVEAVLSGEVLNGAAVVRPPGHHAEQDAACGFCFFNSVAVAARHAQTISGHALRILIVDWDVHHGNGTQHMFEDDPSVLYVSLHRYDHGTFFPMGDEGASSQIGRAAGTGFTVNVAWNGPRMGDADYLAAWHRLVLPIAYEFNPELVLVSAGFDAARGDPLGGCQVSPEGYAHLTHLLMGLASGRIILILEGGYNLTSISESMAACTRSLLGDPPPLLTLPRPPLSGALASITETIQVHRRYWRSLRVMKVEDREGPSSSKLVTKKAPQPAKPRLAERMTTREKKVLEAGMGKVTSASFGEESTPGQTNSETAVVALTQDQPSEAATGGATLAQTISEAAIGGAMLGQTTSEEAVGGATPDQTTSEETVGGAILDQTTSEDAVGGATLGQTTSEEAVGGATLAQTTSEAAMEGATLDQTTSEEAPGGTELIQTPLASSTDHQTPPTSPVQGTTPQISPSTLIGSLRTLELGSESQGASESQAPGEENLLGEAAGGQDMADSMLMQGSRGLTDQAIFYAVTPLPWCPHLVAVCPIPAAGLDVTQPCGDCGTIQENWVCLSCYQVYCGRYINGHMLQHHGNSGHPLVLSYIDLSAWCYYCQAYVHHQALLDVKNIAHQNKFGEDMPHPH
Protocol: (§3) FIGS. 2A-2F show measurement of intrinsic and in situ HDACi activities. […] IC50 values were calculated from nonlinear regression plots using GraphPad Prism5 software. […] Recombinant HDAC6 was incubated with each drug at the indicated concentrations. IC50 values were calculated from nonlinear regression plots using GraphPad Prism5 software.
(§4) HDAC activity assay. In vitro HDAC inhibition was measured by using the HDAC fluorimetric assay/drug discovery Kit (Enzo Life Sciences, BML-AK500) and the HDAC6 fluorometric drug discovery kit (Enzo Life Sciences, BML-AK516) following the manufacturer's protocols and instructions. IC50 values were calculated from nonlinear […] plots using GraphPad Prism5 software.
(§5) HDAC1 and HDAC2 are enriched in nuclear extracts whereas HDAC6 is a cytosolic enzyme that is the principal modulator of the acetylation status of Hsp90. […] Again, TSA served as the positive control in FIG. 2D.

[1] = test system: HDACs from Hela cell nuclear extract; type: biochemical; settings: HeLa cell nuclear extract; tested at 10 μM and 25 μM; FIG. 2B
Protocol: as §3, §4, §5

Structure (SMILES): CCOC(=O)/C=C/c1ccc(N2C(=S)N(c3ccc(C#N)c(C(F)(F)F)c3)C(=O)C2(C)C)cc1F [Compound 1002, (E)-ethyl-3-(4-(3-(4-cyano-3-(trifluoromethyl)phenyl)-5,5-dimethyl-4-oxo-2-thioxoimidazolidin-1-yl)-2-fluorophenyl)acrylate]
- effect on C4-2 cell growth (C4-2 cells): unable to appreciably inhibit C4-2 cell growth
- effect on growth of 22Rv1 cells (22Rv1 cells): modest effect at high concentrations
- inhibitory activity against HDAC6 (human recombinant HDAC6): did not show significant inhibitory activity
- inhibition of nuclear HDAC activity [1]: did not inhibit nuclear HDAC activity even up to a concentration of 25 μM
